Measured values reported in patent publication US5981519A, “Vinyl-pyrrolidinone cephalosporins” (Hoffman-La Roche Inc., priority 1996, dated 1999).
≈ marks a conversion by molar mass, not a printed value.

Assays:
[1] = test system: MRSA; assay: In vitro activity, MIC90 against MRSA (n = 38), agar dilution; assay type: cell-based; conditions: Staphylococcus aureus, MuellerHinton agar, inoculum: 10^5 CFU/spot
Method: (§1) Representative compounds (A and B, above) of the present invention were tested. In vitro activity was determined by minimum inhibitory concentration by the agar dilution method in Mueller Hinton agar, inoculum=10^4 CFU/spot.
*Agar dilution method on MuellerHinton agar, inoculum: 10^5 CFU/spot

[2] = test system: S. aureus 743 (MRSA); assay: In vitro activity, minimum inhibitory concentration, agar dilution, S. aureus 743 (MRSA); assay type: cell-based; conditions: Staphylococcus aureus, Mueller Hinton agar, inoculum=10^4 CFU/spot
Method: as §1

[3] = test system: S.aureus 6538 (MSSA); assay: In vitro activity, minimum inhibitory concentration, agar dilution, S. aureus 6538 (MSSA); assay type: cell-based; conditions: Staphylococcus aureus, Mueller Hinton agar, inoculum=10^4 CFU/spot
Method: as §1

[4] = test system: P. aeruginosa ATCC27853; assay: In vitro activity, minimum inhibitory concentration, agar dilution, P. aeruginosa ATCC27853; assay type: cell-based; conditions: Pseudomonas aeruginosa, Mueller Hinton agar, inoculum=10^4 CFU/spot
Method: as §1

[5] = test system: S. aureus 270A (MRSA); assay: In vitro activity, minimum inhibitory concentration, agar dilution, S. aureus 270A (MRSA); assay type: cell-based; conditions: Staphylococcus aureus, Mueller Hinton agar, inoculum=10^4 CFU/spot
Method: as §1

[6] = test system: S. aureus 270 A (MRSA); assay: In vivo efficacy, sc abscess model in mice infected with S. aureus 270 A (MRSA); conditions: 10 mg/kg ip; for Median log CFU: 3 mice, untreated 6.92
Method: In vivo efficacy was determined with a sc abscess model in mice, infected with S. aureus 270 A (MRSA). The dose (ip) was 10 mg/kg. The median log of colony forming units (CFU) was determined.

MIC90 [1] [µg/mL]	MIC [2] [µg/mL]	MIC [3] [µg/mL]	MIC [4] [µg/mL]	MIC [5] [µg/mL]	SMILES	activity compared with vancomycin [6]	reduction in the number of CFUs as compared to the untreated control [6]	Median log CFU [6] [log CFU]
4 (≈ 7.48 µM)	2 (≈ 3.74 µM)	0.25 (≈ 0.468 µM)	4 (≈ 7.48 µM)	4 (≈ 7.48 µM)	Nc1nc(/C(=N/O)C(=O)N[C@@H]2C(=O)N3C(C(=O)O)=C(/C=C4\CCN([C@H]5CCNC5)C4=O)CS[C@H]23)ns1 [B, (6R, 7R)-7-[(Z)-2-(5-Amino-[1,2,4]thiadiazol-3-yl)-2-hydroxyimino-acetylamino]-8-oxo-3-[(E)-(S)-2-oxo-[1,3']bipyrrolidinyl-3-ylidenemethyl]-5-thia-1-aza-bicyclo[4.2.0]oct-2-ene-2-carboxylic acid]			
4 (≈ 7.48 µM)	2 (≈ 3.74 µM)	0.5 (≈ 0.935 µM)	2 (≈ 3.74 µM)	2 (≈ 3.74 µM)	Nc1nc(/C(=N/O)C(=O)N[C@@H]2C(=O)N3C(C(=O)O)=C(/C=C4\CCN([C@@H]5CCNC5)C4=O)CS[C@H]23)ns1 [A, (6R, 7R)-7-[(Z)-2-(5-Amino-[1,2,4]thiadiazol-3-yl)-2-hydroxyimino-acetylamino]-8-oxo-3-[(E)-(R)-2-oxo-[1,3']bipyrrolidinyl-3-ylidenemethyl]-5-thia-1-aza-bicyclo[4.2.0]oct-2-ene-2-carboxylic acid]	more active than vancomycin	more than hundred-fold reduction	4.72
					CN[C@H](CC(C)C)C(=O)N[C@H]1C(=O)N[C@@H](CC(N)=O)C(=O)N[C@H]2C(=O)N[C@H]3C(=O)N[C@H](C(=O)N[C@H](C(=O)O)c4cc(O)cc(O)c4-c4cc3ccc4O)[C@H](O)c3ccc(c(Cl)c3)Oc3cc2cc(c3O[C@@H]2O[C@H](CO)[C@@H](O)[C@H](O)[C@H]2O[C@H]2C[C@](C)(N)[C@H](O)[C@H](C)O2)Oc2ccc(cc2Cl)[C@H]1O [Vancomycin, vancomycin, reference compound]			5.28
